The text below walks through data of US11135233B2, “Methods for preventing or mitigating acute allergic responses using human milk oligosaccharides” (Abbott Laboratories, priority 2013, dated 2021).

SMILES strings stand for the structures.

Experiment [1] has as its system skin mast cell response in sensitized mice. Description: Passive cutaneous anaphylaxis (PCA), skin mast cell response, Evans blue dye in ear pinnae. The class given is in vivo. The note with it: oral gavage 1 mg per mouse daily for 5 days; anti-DNP IgE i.d., DNP-HSA i.v.; FIG. 3. Here is the method:
The ability of HMOs to attenuate skin mast cell responses, as measured by the PCA response, was determined in sensitized mice fed 2′-FL, phosphate buffered saline (PBS), lactose, or 6′-SL by detecting the level of dye in ear pinnae indicative of the PCA response.
Mice were treated with 2′-FL, 6′-SL, lactose or PBS by oral gavage (1 mg per mouse) daily for 5 days. On day 4 mice were sensitized by intradermal (i.d.) injection of anti-DNP IgE (10 ng in […] saline) into the right ear pinnae while the left ear was injected with saline alone. Twenty-four hours later, DNP-HSA (10 mg/kg) together with Evans blue (100 mg/kg) was injected intravenously (i.v.). 1 hour following i.v. injection mice were euthanized and ear pinnae collected. Evans blue dye was extracted by incubating the skin samples in DMSO for 24 h at 37° C., and measuring the optical density (O.D.) at 650 nm. Data is presented as the difference in O.D. between the control (left) and sensitized (right) ear.

Experiment [2] deals with mouse mast cell protease-1 (mMCP-1). Description: OVA-induced food allergy model: serum mMCP-1 concentration. The class given is in vivo, mice. The note with it: 200 ul of 5 mg/ml in PBS daily oral gavage; day 49; versus untreated and lactose treated OVA-sensitized controls; FIG. 6. The method, then:
(§1) The ability of HMOs to attenuate the gastrointestinal mast cell response was determined by measuring the amount of diarrhea, change in body temperature, and change in mouse mast cell protease-1 (mMCP-1) levels in HMO treated mice relative to untreated and lactose treated control mice.
(§2) The OVA-induced food allergy model was modified from Yamaki and Yoshino (Allergy. 2012; 67:1259-70). Mice were sensitized with 50 μg of OVA (Sigma, St. Louis, Mo.) and 2 mg of alum (Sigma, St. Louis, Mo.) in 200 μl of Phosphate Saline Buffer (PBS) on day 0 and 14. HMO (200 ul of 5 mg/ml in PBS) treatments (2′-FL or 6′-SL) were administrated daily via oral gavage from day 27 to day 49. Mice were orally challenged with 50 μg of OVA every 3 days (Days: 28, 31, 34, 37, 40, 43, 46 and 49). On challenge days treatments were given 1 hour prior to OVA challenge. On day 49, serum, spleen and intestinal samples, were obtained. Non-sensitized PBS challenged mice served as negative controls.
Following body temperature measurements, mice were euthanized and serum mMCP-1 concentration was determined.

In experiment [3] the test system is OVA-sensitized mice. Description: OVA-induced food allergy model: diarrhea score. The class given is in vivo. As to conditions: 200 ul of 5 mg/ml in PBS daily oral gavage day 27 to 49; versus untreated or lactose treated OVA-sensitized mice; FIG. 4A/4B. The method, then: as §1, §2
Diarrhea symptoms were scored by visually monitoring mice for 60 minutes after challenge as follows: 0, normal stools; 1, a few wet an unformed stools; 2, a number of wet an unformed stools with moderate perianal staining of the coat; 3, severe, watery stool with severe perianal staining of the coat.

The subject of experiment [4] is OVA-sensitized mice. Description: OVA-induced food allergy model: rectal temperature after final antigen challenge. The note with it: 200 ul of 5 mg/ml in PBS daily oral gavage; 1 hour following final OVA challenge; versus untreated or lactose treated; FIG. 5A/5B. The class given is in vivo. Here is the method:
as §1, §2
Rectal temperature was monitored for 1 hour following the final antigen challenge.

In experiment [5] the test system is bone marrow mast cells (BMMC). Kind of experiment: In vitro mast cell degranulation (β-hexosaminidase release) in sensitized BMMC exposed to HMO. The class given is cell-based, Balb/c mice. The note with it: anti-DNP IgE sensitized BMMC, HMO at a range of concentrations 30 min prior to DNP-HSA activation; FIG. 1A/1B. The method, then:
The ability of HMOs to attenuate mast cell degranulation was tested by exposing sensitized bone marrow mast cells (BMMC) to either 2′-FL or 6′-SL.
BMMC from female Balb/c mice were obtained by culturing the bone marrow cells in enriched RPMI-1640 medium with 10% pokeweed mitogen-stimulated spleen as a source of mast cell growth factors for 3 weeks. The cells were kept at a concentration of 0.2×10^5 cells/ml in a 5% CO2, 37° C. environment, where the medium was changed weekly. BMMC were used for experiments after 3-4 weeks of culture (>95% mast cells). BMMC were sensitized with 1 ug/ml monoclonal anti-dinitrophenyl (DNP) IgE clone and seeded into 96-well plates at a final concentration of 1×10^6 cells/ml. […] Cell supernatants were harvested 30 min after DNP-HSA stimulation and stored at −20° C. until analyzed. […] Results are expressed as a percentage of total β-hexosaminidase. […]
This assay was conducted to assess in-vitro antigen-induced degranulation of mast cells. […] The release of β-hexosaminidase from mast cells was measured from the supernatant. […] The reaction was stopped with 100 μl citrate buffer pH 4.5 and read by using CytoFluor 2350 fluorescent spectrophotometer at 450 nm (excitation 356 nm). B-hexosaminidase release was presented as a percentage of the total B-hexosaminidase release determined by cell lysis with 1×triton-X.

For `CC(=O)N[C@H]1[C@H]([C@H](O)[C@H](O)CO)O[C@@](OC[C@H]2O[C@@H](O[C@H]3[C@H](O)[C@@H](O)[C@H](O)O[C@@H]3CO)[C@H](O)[C@@H](O)[C@H]2O)(C(=O)O)C[C@@H]1O` [6′-SL, 6′-sialyllactose], the “difference in Evans blue dye (O.D. at 650 nm) between control (left) and sensitized (right) ear” value in experiment [1] was “greater difference in dye detected between right and left ears in PBS and lactose-treated mice than in mice treated with 2′-FL or 6′-SL”. Besides, the “serum mMCP-1 levels” value in experiment [2] is on record as “but not 6′-SL, produced a significant decrease”. Also, the “stool (diarrhea) score” value in experiment [3] is recorded as “but not 6′-SL, Significantly Decreases Diarrhea Symptoms”. Moreover, the “decline in rectal temperature” value in experiment [4] is recorded as “but not 6′-SL, Mitigates the Decline in Rectal Temperature”. For the same molecule, the “β-hexosaminidase (β-Hex) activity relative to controls (percentage of total β-hexosaminidase)” value in experiment [5] is “significant decrease”.

For `OC[C@H]1O[C@@H](O[C@H]2[C@H](O)[C@@H](O)C(O)O[C@@H]2CO)[C@H](O)[C@@H](O)[C@H]1O` (stereo partly drawn) [lactose, reference compound], in experiment [1], the “difference in Evans blue dye (O.D. at 650 nm) between control (left) and sensitized (right) ear” value was “greater difference in dye detected”.
